Reference: ChEMBL document CHEMBL1201862, “PubChem BioAssay data set” (2004)
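A five-concentration, 48-hour dose response in 96-well plates underlies each endpoint, interpolated linearly between surrounding concentrations. GI50 is the concentration that inhibits growth by half.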 Calls of active or inactive are those of the source. Cut-off read from the data, not from the text of the source: active = GI50 up to about 1.1 µM and inactive = higher.

Tests used:
Assay in all cases: NCI tumour cell line growth inhibition, 48 h
KM12 = system: KM12
OVCAR-3 = system: OVCAR-3
SNB-78 = system: SNB-78
NCI-H226 = system: NCI-H226
SF-268 = system: SF-268
HCT-15 = system: HCT-15
UACC-257 = system: UACC-257
SK-MEL-2 = system: SK-MEL-2
SF-295 = system: SF-295
RPMI-8226 = system: RPMI-8226
MOLT-4 = system: MOLT-4
RXF 393 = system: RXF 393
SK-MEL-28 = system: SK-MEL-28
SNB-75 = system: SNB-75
PC-3 = system: PC-3
DU-145 = system: DU-145
T47D = system: T47D
NCI/ADR-RES = system: NCI/ADR-RES
BT-549 = system: BT-549
SR = system: SR

SMILES | GI50 (KM12) | GI50 (OVCAR-3) | GI50 (SNB-78) | GI50 (NCI-H226) | GI50 (SF-268) | GI50 (HCT-15) [µM] | GI50 (UACC-257) | GI50 (SK-MEL-2) | GI50 (SF-295) | GI50 (RPMI-8226) | GI50 (MOLT-4) | GI50 (RXF 393) | GI50 (SK-MEL-28) | GI50 (SNB-75) | GI50 (PC-3) | GI50 (DU-145) | GI50 (T47D) | GI50 (NCI/ADR-RES) | GI50 (BT-549) | GI50 (SR)
O=C(CCc1cc(-c2ccccc2)nc(S)n1)N(Cc1ccccc1)Cc1ccccc1 | > 100 µM (inactive) | > 100 µM (inactive) | > 100 µM (inactive) | > 100 µM (inactive) | > 100 µM (inactive) | > 100 | > 100 µM (inactive) | > 100 µM (inactive) | > 100 µM (inactive) | > 100 µM (inactive) | > 100 µM (inactive) |  |  |  |  |  |  |  |  | 
Cc1cc(NS(=O)(=O)c2ccc(Nc3c4ccccc4nc4c(C(=O)N5CCN(CCOS(C)(=O)=O)CC5)cccc34)cc2)no1 | > 100 µM (inactive) | > 100 µM (inactive) | > 100 µM (inactive) | > 100 µM (inactive) | > 100 µM (inactive) | > 100 | > 100 µM (inactive) | > 100 µM (inactive) | > 100 µM (inactive) | > 100 µM (inactive) | 54.1 µM (inactive) | > 100 µM (inactive) | > 100 µM (inactive) | > 100 µM (inactive) |  |  |  |  |  | 
CC(C)(O)C1CC[C@]2(C)CC[C@]3(C)[C@H](CC[C@@H]4[C@@]5(C)CC[C@H](O)C(C)(C)[C@@H]5CC[C@]43C)[C@@H]12 (some centres undefined) | 34.4 µM (inactive) | 24.1 µM (inactive) |  | 44.4 µM (inactive) | 31 µM (inactive) | 35 | 15.4 µM (inactive) | 20.5 µM (inactive) | 25.4 µM (inactive) | 34.3 µM (inactive) | 73.1 µM (inactive) | 33.6 µM (inactive) | 29.2 µM (inactive) | 21.6 µM (inactive) | 30.3 µM (inactive) | 23.2 µM (inactive) | 23.1 µM (inactive) | 29.4 µM (inactive) | 29.2 µM (inactive) | 30.5 µM (inactive)
COc1cc2c(cc1O)CC1c3c(cc(O)c(OC)c3-2)CCN1C (centres undefined) | > 100 µM (inactive) | 98.9 µM (inactive) |  | 69.7 µM (inactive) | > 100 µM (inactive) | > 100 | > 100 µM (inactive) | > 100 µM (inactive) | > 100 µM (inactive) | > 100 µM (inactive) | > 58.3 µM (inactive) | > 100 µM (inactive) | > 100 µM (inactive) | 81.1 µM (inactive) | > 96.6 µM (inactive) | > 100 µM (inactive) | > 100 µM (inactive) | > 100 µM (inactive) | > 100 µM (inactive) | > 59.7 µM (inactive)
CC(C)=CCC[C@@H](C)C1=C(Nc2ccccc2F)C(=O)C(C)=C(O)C1=O | 4.16 µM (inactive) | 4.51 µM (inactive) |  | 5.3 µM (inactive) | 5.47 µM (inactive) | 3.77 | 10.1 µM (inactive) | 8.75 µM (inactive) | 3.65 µM (inactive) | 17.4 µM (inactive) | 5.46 µM (inactive) | 16.8 µM (inactive) | 17.6 µM (inactive) | 12.7 µM (inactive) | 8.61 µM (inactive) | 9.35 µM (inactive) | 13.6 µM (inactive) | 2.55 µM (inactive) | 8.09 µM (inactive) | 11 µM (inactive)
O=C(OCc1ccccc1)N1N=NC2C3CC(OCc4ccccc4)(OCc4ccccc4)C(O3)C21 (centres undefined) | 36.3 µM (inactive) | 16.6 µM (inactive) | 43.7 µM (inactive) | 12.6 µM (inactive) | 22.4 µM (inactive) | 34 | 14 µM (inactive) | 16.3 µM (inactive) | 22.1 µM (inactive) | 7.24 µM (inactive) | 5.5 µM (inactive) | 9.64 µM (inactive) | 21.3 µM (inactive) | 24.3 µM (inactive) |  |  |  |  |  | 
O=c1[nH]nc(-c2ccc([N+](=O)[O-])cc2)n1/N=C/c1ccc([N+](=O)[O-])cc1 | 55.3 µM (inactive) | > 100 µM (inactive) |  | > 100 µM (inactive) | 72.9 µM (inactive) | 73.8 | > 100 µM (inactive) | > 100 µM (inactive) | > 100 µM (inactive) | 38.5 µM (inactive) | 23.6 µM (inactive) | 56.9 µM (inactive) | > 100 µM (inactive) | > 100 µM (inactive) | 57.9 µM (inactive) | > 100 µM (inactive) | > 100 µM (inactive) | 64.7 µM (inactive) | > 100 µM (inactive) | 52 µM (inactive)
COc1ccc(C(OCC2OC(n3cc(C)c(=O)[nH]c3=O)CC2n2cc(Cn3cc(F)c(=O)[nH]c3=O)nn2)(c2ccccc2)c2ccccc2)cc1 (centres undefined) | 4.25 µM (inactive) | 5.26 µM (inactive) |  | 4.42 µM (inactive) | 5.06 µM (inactive) | 4.5 | 11.5 µM (inactive) | 6.31 µM (inactive) | 3.26 µM (inactive) | 3.04 µM (inactive) | 4.54 µM (inactive) | 10.6 µM (inactive) | 11.3 µM (inactive) | 12.6 µM (inactive) | 4.33 µM (inactive) | 6.44 µM (inactive) | 5.71 µM (inactive) | 31.6 µM (inactive) | 11.1 µM (inactive) | 2.51 µM (inactive)
